Laboratory results: patent publication US7015177B2, “Solid formulation” (priority 2001, dated 2006)

Legend:
[1] = Solubility of agrochemical in solvent or melt; format: physicochemical; settings: melt at about 65 to 70° C.
[2] = Thermal degradation of agrochemical; format: physicochemical

In the case of `CN1COCN(Cc2cnc(Cl)s2)/C1=N\[N+](=O)[O-]` [thiamethoxam], the “solubility in melt of polyethylene glycol and methyl oleate” value [1] is reported as “readily soluble”.
For `CC1(C)[C@H](C(=O)O[C@H](C#N)c2cccc(Oc3ccccc3)c2)[C@@H]1/C=C(\Cl)C(F)(F)F` (racemic) [lambda cyhalothrin], the “temperature above which it tends to degrade” value [2] was > 100 °C.
For `CCCCCCCCCCCCCCCCCC(=O)O` [stearic acid], the retardation of germination (seeds) was “no significant retardation of germination”.
